Measured values reported in paper doi:10.1101/2020.06.06.138008v1 (biorxiv, 2020).

Target: MlaFEDB (Escherichia coli, UniProt P63386)
Conditions: pH 8.0, 5 mM MgCl2, 150 mM NaCl, 0.5 mM DDM micelles; Hill n = 1.81 ± 0.35

MlaFEDB, sequence (P63386 whole entry): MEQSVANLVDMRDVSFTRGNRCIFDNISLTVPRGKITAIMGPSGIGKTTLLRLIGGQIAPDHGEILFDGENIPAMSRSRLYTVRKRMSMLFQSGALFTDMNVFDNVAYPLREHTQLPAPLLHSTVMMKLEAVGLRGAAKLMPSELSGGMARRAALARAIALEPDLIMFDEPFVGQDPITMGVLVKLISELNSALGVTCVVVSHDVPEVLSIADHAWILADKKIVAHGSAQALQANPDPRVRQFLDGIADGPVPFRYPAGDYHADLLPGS
MlaFEDB, sequence (P64606 whole entry partner): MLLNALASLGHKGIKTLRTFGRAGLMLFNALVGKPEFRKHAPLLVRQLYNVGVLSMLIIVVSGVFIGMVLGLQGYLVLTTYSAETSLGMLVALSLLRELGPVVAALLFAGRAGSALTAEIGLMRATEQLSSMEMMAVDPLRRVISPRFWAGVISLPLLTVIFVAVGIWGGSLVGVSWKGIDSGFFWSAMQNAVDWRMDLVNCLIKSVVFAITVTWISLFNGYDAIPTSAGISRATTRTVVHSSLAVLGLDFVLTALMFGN
MlaFEDB, sequence (P64604 whole entry partner): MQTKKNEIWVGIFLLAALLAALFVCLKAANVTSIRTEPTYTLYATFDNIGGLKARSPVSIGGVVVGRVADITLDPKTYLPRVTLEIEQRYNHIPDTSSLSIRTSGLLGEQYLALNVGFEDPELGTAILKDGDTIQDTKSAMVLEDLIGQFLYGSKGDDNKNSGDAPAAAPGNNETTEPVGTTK
MlaFEDB, sequence (P64602 whole entry partner): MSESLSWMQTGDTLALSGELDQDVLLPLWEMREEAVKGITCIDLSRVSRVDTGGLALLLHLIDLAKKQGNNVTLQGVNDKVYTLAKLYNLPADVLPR

Km: 200 ± 44.6 µM
Structure (SMILES): Nc1ncnc2c1ncn2[C@@H]1O[C@H](COP(=O)(O)OP(=O)(O)OP(=O)(O)O)[C@@H](O)[C@H]1O [ATP]
